Results from patent publication US10526336B2, “Fused heteroaryl derivatives as orexin receptor antagonists” (Merck Sharp & Dohme Corp., priority 2014, dated 2020).

What follows are compounds tested against human orexin-2 receptor (Homo sapiens (Human), UniProt O43614) (assay: FLIPR Ca2+ Flux Assay, orexin-2 receptor antagonism in CHO cells). Conditions: CHO cells expressing the human orexin-2 receptor; agonist 70 pM Ala-6,12 orexin-A; read-out: hOX2 FLIPR IC50.
Assay type: cell-based
In short: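 CHO cells expressing rat OX1R or human OX2R, Fluo-4AM loaded, given compounds for 5 min, then challenged with 70 pM Ala-6,12 human orexin-A in HBSS/HEPES/BSA/probenecid, pH 7.4. FLIPR calcium fluorescence recorded 5 min; peak height versus agonist-alone gives IC50.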

Sequence of human orexin-2 receptor (O43614 whole entry): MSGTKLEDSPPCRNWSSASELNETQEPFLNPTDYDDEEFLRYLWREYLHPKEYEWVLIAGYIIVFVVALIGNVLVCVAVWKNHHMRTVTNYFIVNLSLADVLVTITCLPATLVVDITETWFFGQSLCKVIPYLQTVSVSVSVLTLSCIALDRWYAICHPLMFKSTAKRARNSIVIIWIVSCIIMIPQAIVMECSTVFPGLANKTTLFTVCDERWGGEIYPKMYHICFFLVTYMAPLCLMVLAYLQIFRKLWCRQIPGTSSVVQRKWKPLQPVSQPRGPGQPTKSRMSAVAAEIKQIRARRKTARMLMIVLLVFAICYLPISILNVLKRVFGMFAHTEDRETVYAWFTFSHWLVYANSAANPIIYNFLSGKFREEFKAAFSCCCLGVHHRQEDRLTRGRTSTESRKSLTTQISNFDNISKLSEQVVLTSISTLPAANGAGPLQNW

Row | SMILES | IC50
1 | C[C@@H]1CC[C@@H](Oc2nccn3nccc23)CN1C(=O)c1ccccc1-n1ncnn1 [Example 76, (2-(2H-tetrazol-2-yl)phenyl)((2R,5R)-2-methyl-5-(pyrazolo[1,5-α]pyrazin-4-yloxy)piperidin-1-yl)methanone] | 27.8 nM
2 | Cc1cn2ccnc(O[C@@H]3CC[C@@H](C)N(C(=O)c4ccccc4C4(C#N)CC4)C3)c2n1 [Example 9, 1-(2-((2R,5R)-2-methyl-5-((2-methylimidazo[1,2-α]pyrazin-8-yl)oxy)piperidine-1-carbonyl)phenyl)cyclopropanecarbonitrile] | 13.2 nM
3 | C[C@@H]1CC[C@@H](Oc2nccn3c(Cl)cnc23)CN1C(=O)c1ccccc1-n1ncnn1 [Example 27, (2-(2H-tetrazol-2-yl)phenyl) ((2R,5R)-5-((3-chloroimidazo[1,2-α]pyrazin-8-yl)oxy)-2-methylpiperidin-1-yl)methanone] | 9.1 nM
4 | C[C@@H]1CC[C@@H](Oc2nccc3c2cnn3C)CN1C(=O)c1ccccc1-n1nccn1 [Example 95, (2-(2H-1,2,3-triazol-2-yl)phenyl)((2R,5R)-2-methyl-5-((1-methyl-1H-pyrazolo[4,3-c]pyridin-4-yl)oxy)piperidin-1-yl)methanone] | 17.8 nM
